Measurements as given in paper PMC10175484, “Identification of three elevenin receptors and roles of elevenin disulfide bond and residues in receptor activation in Aplysia californica” (Scientific Reports, 2023).
Where two headings read alike, the source gives them in different places. Where a SMILES comes first, the peptide text is derived from it. Bridges are numbered along the chain shown (N, C = ends).

Tests used:
[1] = system: apElevR1; assay: IP1 accumulation assay, apElevR1 in CHO-K1 cells; assay type: cell-based, Aplysia californica; settings: for apElevR1 Log[EC50] (M): logarithm of molar EC50, IP1 accumulation, CHO-K1 transiently expressing apElevR1 (pcDNA3.1(+)), no Gα16 co-transfection, peptide 10^-12 to 10^-4 M, 1 h incubation, mean ± SEM, n = 3, NA = no activation, SEM
Description: (§1) To determine whether the Aplysia elevenin can activate the putative elevenin receptors, we cloned apElevRs to pcDNA3.1 (+) plasmid and transfected the three apElevRs in CHO-K1 cells. We used an IP1 accumulation assay to measure the concentration of IP1, which is a by-product in the Gαq signaling pathway, to provide evidence for the activation of receptors by elevenin. […] Initially, we used the elevenin peptide at two concentrations of 10^–11 M and 10^–4 M to screen apElevR1, apElevR2, and apElevR3. […] Further, we used different concentration gradients of elevenin, ranging from 10^–12 to 10^–4 M, to generate the dose–response curves (Fig. 8B–E).
(§2) Gαq-coupled GPCRs stimulate PLC-β activity, resulting in increased cellular D-Myo-Inositol 1-Phosphate (IP1). When the G protein-coupled receptor (GPCR) expressed in CHO-K1 cells (Procell, CL-0062) is activated, it is generated by the Gαq pathway through the appropriate ligand, and IP3 is formed which is degraded to IP1. Therefore, IP1 can be used as an alternative to IP3. First, the putative receptor cloned into the mammalian expression vector pcDNA3.1( +) of Aplysia was transiently expressed in CHO-K1 cells. CHO-K1 cells were cultured in F-12 K medium (Gibco, 21,127–022) containing 10% fetal bovine serum (Genial, G11-70,500) at 37 °C and 5% CO2. When the cell density in the 6-well plate reached 70–90%, 1.5 μg of putative receptor plasmid [in pcDNA3.1( +)] was mixed with 200 μl buffer (Polyplus) in a 1.5 ml EP tube and incubated at room temperature for 10 min. The DNA/Transfection reagent (Polyplus) mixture was then added dropwise to the 6-well plate, mixed gently, and the cells were incubated overnight at 37 °C and 5% CO2. The next day, cells were digested, counted, diluted to a density of 40,0000 cells/ml, and replated in a white 384-well assay plate (Greiner bio-one, B14061RI), each well inoculated with the diluted liquid 50 μl and incubate overnight at 37 °C in 5% CO2. On the third day, the CHO cells were incubated for 1 h after adding peptide. The activation of putative receptors was detected by monitoring IP1 accumulation using the IP1 detection kit in Tecan Spark (Cisbio, 62IPAPEB). All procedures were performed according to the manufacturer's instructions for the IP1 assay kit. The elevenin peptide and analogs were synthesized by Sangon Biotech or Guoping Pharmaceutical (Supplementary Fig. 4) and were aliquoted in 50 nmol EP tubes and stored at -20 °C until use.
(§3) Dose–response curves and bar graphs for experimental data were plotted using Prism software (GraphPad). Data are expressed as the mean ± SEM. Final EC50 values are rounded to two significant figures. All experimental data were taken from individual animals or preparations, and n refers to the number of preparations. Data were considered significant when P < 0.05. Statistical tests were performed using Prism software. They included Student’s t-test (two groups) and one-way ANOVA (three or more groups).

[2] = system: apElevR3; assay: IP1 accumulation assay, apElevR3 in CHO-K1 cells; assay type: cell-based, Aplysia californica; settings: for apElevR3 Log[EC50] (M): logarithm of molar EC50, IP1 accumulation, CHO-K1 transiently expressing apElevR3 (pcDNA3.1(+)), no Gα16 co-transfection, peptide 10^-12 to 10^-4 M, 1 h incubation, mean ± SEM, n = 3, NA = no activation, SEM
Description: as §1, §2, §3

[3] = system: apElevR2; assay: IP1 accumulation assay, apElevR2 in CHO-K1 cells; assay type: cell-based, Aplysia californica; settings: for EC50 / apElevR2 Log[EC50] (M): IP1 accumulation, NA = no activation; for apElevR2 Log[EC50] (M): logarithm of molar EC50, CHO-K1 transiently expressing apElevR2 (pcDNA3.1(+)), no Gα16 co-transfection, peptide 10^-12 to 10^-4 M, 1 h incubation, mean ± SEM, n = 3, SEM
Description: as §1, §2, §3

[4] = system: AstC-R; settings: peptide could activate AstC-R; cited from earlier work
Description: It is notable that there are 6 residu ...

[5] = biological target: elevenin receptor (second of two listed); settings: CHO cells, Ca2+ response, no Gα16, cited from earlier work
Description: (§4) Although the function of elevenin was first studied in C.elegans, its actual elevenin receptors have not yet been found in this species. In fact, prior to our work, there are a total of 6 elevenin receptors that have been described (Fig. 7). First, there are two GPCRs that have been deorphanized as elevenin receptors in both annelid Platynereis and arthropod Ixodes[2],[9]^. There is a single elevenin receptor in Nilaparvata lugens or Bombus terrestris[23] although we could not find the sequence for Nilaparvata NlA42 in NCBI. Second, in annelid Platynereis, the EC50 values of two elevenin recep ...

[6] = biological target: elevenin receptor (first of two listed); settings: CHO cells, Ca2+ response, no Gα16, cited from earlier work
Description: as §4

[7] = CHO-K1 transiently expressing apElevR2, no Gα16, 1 h peptide incubation, average of n = 3, rounded to two significant figures, read-out: apElevR2 [EC50]
[8] = screen at 10^-4 M compared with 10^-11 M peptide, CHO-K1, n = 3, Student's t-test (Fig. 8A)

Row | Molecule | apElevR1 Log[EC50] (M) [1] | apElevR3 Log[EC50] (M) [2] | apElevR2 Log[EC50] (M) [3] | also measured
1 | CC(C)[C@@H]1NC(=O)[C@H](Cc2ccccc2)NC(=O)[C@H](CCCNC(=N)N)NC(=O)[C@H]([C@@H](C)O)NC(=O)[C@@H](NC(=O)[C@@H](N)CC(=O)O)CSSC[C@@H](C(=O)N[C@@H](CCCNC(=N)N)C(=O)NCC(=O)O)NC(=O)[C@H](C)NC(=O)[C@@H]2CCCN2C(=O)[C@H](C)NC(=O)[C@H](Cc2ccccc2)NC1=O [Elevenin5-17] (H-DCTRFVFAPACRG-OH; disulfide 2-11; N-terminus and C-terminus assumed) | -5.11±0.28 M | -5.52±0.18 M | -4.31±0.65 M | EC50 [3, 7]: > 10000 nM
2 | CC(C)[C@@H]1NC(=O)[C@H](Cc2ccccc2)NC(=O)[C@H](CCCNC(=N)N)NC(=O)[C@H]([C@@H](C)O)NC(=O)[C@@H](N)CSSC[C@@H](C(=O)O)NC(=O)[C@H](C)NC(=O)[C@@H]2CCCN2C(=O)[C@H](C)NC(=O)[C@H](Cc2ccccc2)NC1=O [Elevenin6-15] (H-CTRFVFAPAC-OH; disulfide 1-10) | – | -5.20±0.36 M | – | Effect on apElevR1 (IP1 dose-response), in words ([1]; dose-response, CHO-K1, n = 3 (Fig. 10A, G)): did not have any effect; EC50 [3, 7]: > 10000 nM
3 | CC[C@H](C)[C@H](NC(=O)[C@H](CCCNC(=N)N)NC(=O)[C@@H]1CCCN1C(=O)[C@@H](N)CCCNC(=N)N)C(=O)N[C@@H](CC(=O)O)C(=O)N[C@H]1CSSC[C@@H](C(=O)N[C@@H](CCCNC(=N)N)C(=O)NCC(=O)N[C@H](C(=O)N[C@@H](CO)C(=O)N[C@@H](C)C(=O)O)C(C)C)NC(=O)[C@H](C)NC(=O)[C@@H]2CCCN2C(=O)[C@H](C)NC(=O)[C@H](Cc2ccccc2)NC(=O)[C@H](C(C)C)NC(=O)[C@H](Cc2ccccc2)NC(=O)[C@H](CCCNC(=N)N)NC(=O)[C@H]([C@@H](C)O)NC1=O [Elevenin] (H-RPRIDCTRFVFAPACRGVSA-OH; disulfide 6-15; N-terminus and C-terminus assumed) | -7.60±0.40 M | -8.51±0.37 M | -8.93±0.34 M | Activation of apElevR1 in screening (IP1), in words [1, 8]: could not activate; Activation of apElevR3 in screening (IP1), in words [2, 8]: could not activate; Activation of apElevR2 in screening (IP1), in words [3, 8]: could not activate
4 | CC[C@H](C)[C@H](NC(=O)[C@H](CCCNC(=N)N)NC(=O)[C@@H]1CCCN1C(=O)[C@@H](N)CCCNC(=N)N)C(=O)N[C@@H](CC(=O)O)C(=O)N[C@H]1CSSC[C@@H](C(=O)N[C@@H](CCCNC(=N)N)C(=O)NCC(=O)N[C@H](C(=O)N[C@@H](CO)C(=O)N[C@@H](C)C(=O)O)C(C)C)NC(=O)[C@H](C)NC(=O)[C@@H]2CCCN2C(=O)[C@H](C)NC(=O)[C@H](C)NC(=O)[C@H](C(C)C)NC(=O)[C@H](Cc2ccccc2)NC(=O)[C@H](CCCNC(=N)N)NC(=O)[C@H]([C@@H](C)O)NC1=O [[Ala^11]Elevenin] (H-RPRIDCTRFVAAPACRGVSA-OH; disulfide 6-15; N-terminus and C-terminus assumed) | -6.97 ±0.20 M | -6.55±0.21 M | -6.62±0.10 M | –
5 | CC[C@H](C)[C@H](NC(=O)[C@H](CCCNC(=N)N)NC(=O)[C@@H]1CCCN1C(=O)[C@@H](N)CCCNC(=N)N)C(=O)N[C@@H](CC(=O)O)C(=O)N[C@H]1CSSC[C@@H](C(=O)N[C@@H](CCCNC(=N)N)C(=O)NCC(=O)N[C@H](C(=O)N[C@@H](CO)C(=O)N[C@@H](C)C(=O)O)C(C)C)NC(=O)[C@H](C)NC(=O)[C@H](C)NC(=O)[C@H](C)NC(=O)[C@H](Cc2ccccc2)NC(=O)[C@H](C(C)C)NC(=O)[C@H](Cc2ccccc2)NC(=O)[C@H](CCCNC(=N)N)NC(=O)[C@H]([C@@H](C)O)NC1=O [[Ala^13]Elevenin] (H-RPRIDCTRFVFAAACRGVSA-OH; disulfide 6-15; N-terminus and C-terminus assumed) | -6.92±0.13 M | -6.42±0.34 M | -4.48±0.21 M | EC50 ([3]; Table 2 prints no unit, the same values are in nM in Fig. 9J, CHO-K1, n = 3, read-out: EC50 values on apElevR2 (Table 2)): > 10000 nM
6 | AstC without a disulfide bond: Aplysia allatostatin-C (SHYSSMCMFNVVACY) without a disulfide bond (no disulfide bond) | – | – | – | EC50 value on AstC-R compared to AstC with the disulfide bond, in words [4]: significantly higher
7 | LDCRKYPFYYRCRGISA [Ixodes elevenin, elevenin of arthropod Ixodes scapularis, ligand of its two elevenin receptors (literature)] | – | – | – | EC50 ([5]; Ixodes): 5.59 nM; EC50 ([6]; Ixodes): 0.01 nM
8 | PDCTRFVFHPSCRGVAA [Platynereis elevenin, elevenin of annelid Platynereis dumerilii, ligand of its two elevenin receptors (literature)] | – | – | – | EC50 ([5]; Platynereis): 1.3 nM; EC50 ([6]; Platynereis): 62 nM
